The text below walks through data of paper PMC4650712, “Conversion of cell-survival activity of Akt into apoptotic death of cancer cells by two mutations on the BIM BH3 domain” (Cell Death & Disease, 2015).

Series [1] relates to PC3 cells. Kind of series: MTT viability assay, PC3 cells, CPP-fused peptide. To be noted: 72 h, 0, 10 or 20 μM, n=3, PTEN-null, elevated Akt activity. Background: Tetrazolium assays rely on reduction of a dye to a coloured formazan, in cell work by metabolically active cells.
The next series deals with H1299. Kind of series: MTT assay, H1299 lung cancer cells. To be noted: PTEN-silenced. In kind it is cell-based, human. As to the method:
(§1) For intracellular delivery, BH3BIM(I155R/E158S) was fused to the C-terminus of the cell penetration peptide (CPP) derived from HIV Tat (Figure 1). PC3 and HCT116 cells were treated with the CPP-BH3BIM(I155R/E158S) peptide, and the MTT assay was performed. […] We then measured the activity of Akt by examining the phosphorylation state of itself and its substrate GSK3β. […] To elaborate this observation, we examined the effect of the fusion peptide in three different human lung cancer cell lines. […] We then assessed the effect of the Akt activity by ectopically expressing wild-type Akt (Akt-WT), constitutively active Akt (myristoylated Akt; Akt-Myr) or kinase-dead-Akt (Akt-KD). […] The kinase activities of the three Akt versions were confirmed by examining GSK3β phosphorylation (Figures 6f and p-GSK3β). To know whether CPP-BH3BIM(I155R/E158S)-induced cell death might depend on BAX, the HCT116 BAX^+/− and the HCT116 BAX^−/− cell lines were transfected with an expression vector encoding AKT-Myr and the cells were treated with the peptide. […]
(§2) Figure 6 CPP-fused BH3BIM(I155R/E158S) peptide induces death of PC3 cells. (a) Cell viability evaluated by the MTT assay 72 h after treatment of the peptide (0, 10 or 20 μM). […] Cytochrome c (green) was detected by anti-cytochrome c antibody and FITC-conjugated secondary antibody, and the nucleus was stained by DAPI. […]

A further series relates to Akt. Kind of series: Western blot of Akt phosphorylation (Ser473) in PC3 cells. Type of series: cell-based. To be noted: 6 h. As to the method:
as §1, §2
On the technique in general: Immunoblotting shows a protein as a band on a membrane.

The subject of a further series is H23. Kind of series: MTT assay, H23 lung cancer cells. In kind it is cell-based, human. To be noted: wild-type K-Ras, normal Akt activity. As to the method: as §1, §2
Series [2] deals with HCT116 cells. Kind of series: Immunofluorescence of cytochrome c, HCT116 cells. Type of series: cell-based, human. To be noted: 20 μM. As to the method:
as §1, with “p-GSK3β).” for “p-GSK3β). To know whether CPP-BH3BIM(I155R/E158S)-induced cell death might depend on BAX, the HCT116 BAX^+/− and the HCT116 BAX^−/− cell lines were transfected with an expression vector encoding AKT-Myr and the cells were treated with the peptide.”
as §2
Cells were seeded on a cover glass and incubated with the CCP-fused BH3BIM(I155R/E158S) peptide. […] The immunofluorescence signal was detected by fluorescence microscopy (Zeiss, Oberkochen, Germany).

For the next series, the system named is GSK3β. Kind of series: Western blot of GSK3β phosphorylation (Ser9) in PC3 cells. To be noted: 6 h.
Series [3] deals with PC3 cells. Kind of series: Cell fractionation: cytochrome c release from mitochondria. To be noted: 6 h. In kind it is cell-based. As to the method: Figure 7 The BH3BIM(I155R/E158S) sequence induces phosphorylation-dependent cell death. (a) Cell viability by the MTT assay. One day after transfection of PC3 cells with an empty vector (EV) or a PTEN-expressing vector (PTEN), cells were treated for 12 h with AuNP-anti-GST DNA aptamer composite coated with the indicated BH3BIM peptide fused to GST (5 μM). (b) Intracellular delivery of the GST-fused peptides. Cells were washed with PBS three times to remove proteins attached to the plasma membrane. M1 stands for BH3BIM (E158S), M2 for BH3BIM (I155R/E158A), and M3 for BH3BIM (I155R/E158S). (c) Cell viability by trypan blue dye exclusion assay. To confirm the effect in (a), cells were incubated with indicated materials for 24 h and stained with trypan blue for 10 min. Percent of live cells were determined by average of 200 cells in three independent experiments. (d) Immunostaining of cytochrome c in PC3 cells. Cells were transfected (EV or PTEN), and incubated with the CPP-BH3BIM(I155R/E158S) peptide (CPP-peptide) for 48 h. […] Cells were incubated with CPP-BH3BIM(I155R/E158S) for 6 h and subjected to cell fractionation. […] (g) HEK293 cells were treated in the same way as in (a). Viable cells were evaluated 48 h after the treatment by the MTT assay. Error bars indicate the S.D. (n=3) […]

Series [4] deals with HCT116 cells. Kind of series: Death of HCT116 cells with ectopic Akt. In kind it is cell-based. To be noted: peptide 72 h. As to the method:
(§3) For intracellular delivery, BH3BIM(I155R/E158S) was fused to the C-terminus of the cell penetration peptide (CPP) derived from HIV Tat (Figure 1). PC3 and HCT116 cells were treated with the CPP-BH3BIM(I155R/E158S) peptide, and the MTT assay was performed. […] We then measured the activity of Akt by examining the phosphorylation state of itself and its substrate GSK3β. […] To elaborate this observation, we examined the effect of the fusion peptide in three different human lung cancer cell lines. […] We then assessed the effect of the Akt activity by ectopically expressing wild-type Akt (Akt-WT), constitutively active Akt (myristoylated Akt; Akt-Myr) or kinase-dead-Akt (Akt-KD). […] The kinase activities of the three Akt versions were confirmed by examining GSK3β phosphorylation (Figures 6f and p-GSK3β). To know whether CPP-BH3BIM(I155R/E158S)-induced cell death might depend on BAX, the HCT116 BAX^+/− and the HCT116 BAX^−/− cell lines were transfected with an expression vector encoding AKT-Myr and the cells were treated with the peptide. […] The survival of the BAX^−/− cells despite the CPP-BH3BIM(I155R/E158S) treatment could be explained by an observation that the designed peptide only weakly binds to MCL-1 (not shown), which is a major inhibitor of BAK.[35] Presumably, both MCL-1 and BAK are expressed in these cells.[36]
Figure 6 CPP-fused BH3BIM(I155R/E158S) peptide induces death of PC3 cells. (a) Cell viability evaluated by the MTT assay 72 h after treatment of the peptide (0, 10 or 20 μM). N.S indicates non-significance. Error bars indicate S.D. (n=3). (b) The immunofluorescence images of PC3 and HCT116 cells treated with 20-μM CPP-BH3BIM(I155R/E158S). Cytochrome c (green) was detected by anti-cytochrome c antibody and FITC-conjugated secondary antibody, and the nucleus was stained by DAPI. The large boxes are the enlargement of the small boxes, highlighting the cytochrome c staining. (c) Western blot (WB) analysis to examine the effect of CPP-BH3BIM(I155R/E158S) on the phosphorylation of Akt (at Ser473) and GSK3β (at Ser9). […]

Another series has as its system HEK293 cells. Kind of series: MTT assay, HEK293 cells. In kind it is cell-based. To be noted: AuNP-protein or CPP-peptide. As to the method:
Figure 7 The BH3BIM(I155R/E158S) sequence induces phosphorylation-dependent cell death. (a) Cell viability by the MTT assay. One day after transfection of PC3 cells with an empty vector (EV) or a PTEN-expressing vector (PTEN), cells were treated for 12 h with AuNP-anti-GST DNA aptamer composite coated with the indicated BH3BIM peptide fused to GST (5 μM). (b) Intracellular delivery of the GST-fused peptides. Cells were washed with PBS three times to remove proteins attached to the plasma membrane. M1 stands for BH3BIM (E158S), M2 for BH3BIM (I155R/E158A), and M3 for BH3BIM (I155R/E158S). (c) Cell viability by trypan blue dye exclusion assay. To confirm the effect in (a), cells were incubated with indicated materials for 24 h and stained with trypan blue for 10 min. Percent of live cells were determined by average of 200 cells in three independent experiments. (d) Immunostaining of cytochrome c in PC3 cells. […] Viable cells were evaluated 48 h after the treatment by the MTT assay. […]
PC3 and HEK293 cells were incubated with the GST-BH3BIM(I155R/E158S) protein conjugated to AuNP-anti-GST DNA aptamer composite[37] after transfection with a PTEN expression vector (pCMV Flag WT-PTEN; addgene plasmid #22231). […] After removing excess solution and washing with PBS, the precipitated materials were dissolved in […] of dimethyl sulfoxide and quantified by measuring the absorbance at 540 nm. […]

For a further series, the system named is PARP. Kind of series: PARP cleavage. In kind it is cell-based. To be noted: PTEN-transfected; indicator of caspase activation. As to the method:
Figure 7 The BH3BIM(I155R/E158S) sequence induces phosphorylation-dependent cell death. (a) Cell viability by the MTT assay. One day after transfection of PC3 cells with an empty vector (EV) or a PTEN-expressing vector (PTEN), cells were treated for 12 h with AuNP-anti-GST DNA aptamer composite coated with the indicated BH3BIM peptide fused to GST (5 μM). (b) Intracellular delivery of the GST-fused peptides. Cells were washed with PBS three times to remove proteins attached to the plasma membrane. M1 stands for BH3BIM (E158S), M2 for BH3BIM (I155R/E158A), and M3 for BH3BIM (I155R/E158S). (c) Cell viability by trypan blue dye exclusion assay. To confirm the effect in (a), cells were incubated with indicated materials for 24 h and stained with trypan blue for 10 min. Percent of live cells were determined by average of 200 cells in three independent experiments. (d) Immunostaining of cytochrome c in PC3 cells. Cells were transfected (EV or PTEN), and incubated with the CPP-BH3BIM(I155R/E158S) peptide (CPP-peptide) for 48 h. […] (e) PTEN blocked the cytochrome c release from mitochondria. Cells were incubated with CPP-BH3BIM(I155R/E158S) for 6 h and subjected to cell fractionation. […] (g) HEK293 cells were treated in the same way as in (a). Viable cells were evaluated 48 h after the treatment by the MTT assay. Error bars indicate the S.D. (n=3) […]

The test system of another series is A549. Kind of series: MTT assay, A549 lung cancer cells. Type of series: cell-based, human. To be noted: K-Ras mutation. As to the method:
as §1, §2

The subject of series [5] is PC3 cells. Kind of series: Immunofluorescence of cytochrome c, PC3 cells. In kind it is cell-based, human. As to the method:
as §3
Figure 6 CPP-fused BH3BIM(I155R/E158S) peptide induces death of PC3 cells. (a) Cell viability evaluated by the MTT assay 72 h after treatment of the peptide (0, 10 or 20 μM). N.S indicates non-significance. Error bars indicate S.D. (n=3). (b) The immunofluorescence images of PC3 and HCT116 cells treated with 20-μM CPP-BH3BIM(I155R/E158S). Cytochrome c (green) was detected by anti-cytochrome c antibody and FITC-conjugated secondary antibody, and the nucleus was stained by DAPI. The large boxes are the enlargement of the small boxes, highlighting the cytochrome c staining. (c) Western blot (WB) analysis to examine the effect of CPP-BH3BIM(I155R/E158S) on the phosphorylation of Akt (at Ser473) and GSK3β (at Ser9). PC3 cells were incubated with the peptide for 6 h at the indicated concentration. t-Akt and t-GSK3β stand for total Akt and GSK3β, respectively. (d) MTT assay to examine the cytotoxic effect of CPP-BH3BIM(I155R/E158S) on lung cancer cell lines. […] (e) Promotion of CPP-BH3BIM(I155R/E158S)-induced death of HCT116 cells by Akt. Cells were transfected with the indicated vectors for 24 h and incubated with the peptide for 72 h. Cell death was promoted by Akt-WT and Akt-Myr, but not by Akt-KD. (f) Phosphorylation of GSK3β (p-GSK3β) by Akt-WT and Akt-Myr, but not by Akt-KD. […]
Figure 7 The BH3BIM(I155R/E158S) sequence induces phosphorylation-dependent cell death. […] Percent of live cells were determined by average of 200 cells in three independent experiments. […]

As for “YGRRARRRARREIWIAQELRRRGDSFNAYYAR [CPP-BH3BIM(I155R/E158S), BH3BIM(I155R/E158S) fused to the C-terminus of the cell penetration peptide (CPP) derived from HIV Tat]”, in the series on PC3 cells [1], the cytotoxic activity result is “strong cytotoxic activity”. In addition, the “sensitivity to the peptide” value with H1299 is “exhibited sensitivity to the peptide”. Also, the “phosphorylation of Akt (Ser473)” value with Akt was “not Akt itself”. Further, the “response to the peptide” value in the series with H23 is given as “did not respond to this peptide”; in the series on A549, “moderate response”. Also, the cytochrome c distribution entry is “retained the puncta staining pattern” with HCT116 cells [2]; “diffused in the cytoplasm and gradually accumulated in the nucleus” with PC3 cells [5] (20 μM, immunofluorescence, untransfected PC3). In addition, the “phosphorylation of GSK3β (Ser9)” value in the series with GSK3β (PC3 cells, western blot) is “reduced the phosphorylation of GSK3β”. Further, in the series with GSK3β (PTEN experiment (Figure 7e)), the p-S9-GSK3β result is given as “Reduction of p-S9-GSK3β”. Moreover, the cytoplasmic cytochrome c result with PC3 cells [3] is recorded as “Increase of cytoplasmic cytochrome c”. In addition, the “increase of cytoplasmic cytochrome c with PTEN expression” value with PC3 cells [3] (PTEN-transfected) is listed as “obviously blocked by PTEN expression”. Besides, the entries for the “promotion of peptide-induced cell death” value in the series on HCT116 cells [4] (Akt-KD transfected 24 h), with HCT116 cells [4] (Akt-Myr transfected 24 h) and in the series on HCT116 cells [4] (Akt-WT transfected 24 h) were “did not show an additive effect”, “promoted death of HCT116 cells” and “promoted death of HCT116 cells”, respectively. Besides, the “viability of HEK293 cells (Supplementary Figure S6)” value in the series with HEK293 cells was “slightly increased cell viability without a statistical significance”. The “PARP cleavage with PTEN” value in the series on PARP was “PTEN also blocked PARP cleavage”. The apoptotic cell death entry in the series with PC3 cells [5] (20 μM, immunofluorescence) was “underwent apoptotic cell death”. For the same sequence, the “cytochrome c staining pattern” value is “diffused nuclear pattern” in the series on PC3 cells [5] (EV-transfected PC3, 48 h) and “Cytoplasmic puncta staining pattern” in the series with PC3 cells [5] (PTEN-expressing PC3, 48 h).
